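48-hour exposure; five concentrations; linearly interpolated endpoints. Here, GI50 denotes the concentration required for 50% inhibition of growth.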 Activity calls are given as the source filed them. No stated cut-off is given here; in the data, active = GI50 up to about 1.1 µM and inactive = higher.
What was measured:
Assay in all cases: DTP human tumour cell line panel, 48 h
A498 = system: A498
A549 = system: A549
ACHN = system: ACHN
DU-145 = system: DU-145
HCT-116 = system: HCT-116
HOP-62 = system: HOP-62
KM12 = system: KM12
MOLT-4 = system: MOLT-4
NCI-H23 = system: NCI-H23
OVCAR-3 = system: OVCAR-3
OVCAR-5 = system: OVCAR-5
RPMI-8226 = system: RPMI-8226
SF-268 = system: SF-268
SF-539 = system: SF-539
SK-MEL-2 = system: SK-MEL-2
SW-620 = system: SW-620
UACC-257 = system: UACC-257
HOP-92 = system: HOP-92
RXF 393 = system: RXF 393

Measured: GI50

COc1cc2c(c(O)c1OC)C(=O)[C@@H]1CCC(=O)N1C2c1ccccc1 (stereo partly drawn)
inactive: A498 > 100 µM | A549 59 µM | ACHN 85.7 µM | DU-145 > 100 µM | HCT-116 66.8 µM | HOP-62 > 100 µM | KM12 67.5 µM | MOLT-4 36 µM | NCI-H23 > 100 µM | OVCAR-3 65.6 µM | OVCAR-5 > 100 µM | RPMI-8226 45.7 µM | SF-268 > 100 µM | SF-539 > 100 µM | SK-MEL-2 > 100 µM | SW-620 > 100 µM | UACC-257 > 100 µM

COC(=O)C1C(=O)N(CCc2c[nH]c3ccccc23)C[C@@H]2CCC(=O)C[C@H]12 (stereo partly drawn)
inactive: A498 > 100 µM | A549 > 100 µM | HCT-116 > 100 µM | HOP-62 > 100 µM | HOP-92 > 100 µM | KM12 > 100 µM | MOLT-4 > 100 µM | NCI-H23 > 100 µM | OVCAR-3 > 100 µM | RPMI-8226 > 100 µM | RXF 393 > 100 µM | SF-268 > 100 µM | SF-539 > 100 µM | SK-MEL-2 > 100 µM | SW-620 > 100 µM | UACC-257 > 100 µM

O=C1CC(c2ccc(Cl)cc2)=Nc2ccccc2N1
inactive: A498 79.6 µM | A549 > 100 µM | ACHN 69.5 µM | HCT-116 28.6 µM | HOP-62 40.6 µM | HOP-92 26.4 µM | KM12 > 100 µM | MOLT-4 > 100 µM | NCI-H23 65.8 µM | OVCAR-3 84.9 µM | OVCAR-5 > 100 µM | RXF 393 29.9 µM | SF-268 > 100 µM | SF-539 96.6 µM | SK-MEL-2 > 100 µM | SW-620 18.8 µM | UACC-257 80.7 µM

O=C(Nc1ccc(Cl)c(Cl)c1)C1C(=O)N(c2ccc(Cl)c(Cl)c2)C(=O)/C1=N\O (stereo not drawn)
inactive: A498 > 100 µM | A549 36.6 µM | ACHN > 100 µM | HCT-116 32.6 µM | HOP-62 > 100 µM | HOP-92 > 100 µM | MOLT-4 > 100 µM | NCI-H23 > 100 µM | OVCAR-3 > 100 µM | OVCAR-5 > 100 µM | RPMI-8226 > 100 µM | SF-268 > 100 µM | SF-539 > 100 µM | SK-MEL-2 > 100 µM | SW-620 49 µM | UACC-257 51.2 µM

CCOC(=O)C(C)(C)Oc1ccc2c(=O)cc(-c3ccccc3)oc2c1
inactive: A498 > 100 µM | A549 23.1 µM | ACHN 54.7 µM | HCT-116 17.3 µM | HOP-62 18.5 µM | KM12 18.9 µM | MOLT-4 13.8 µM | NCI-H23 18.6 µM | OVCAR-3 19.5 µM | OVCAR-5 > 100 µM | RPMI-8226 14.1 µM | RXF 393 21.2 µM | SF-268 22.3 µM | SF-539 20.2 µM | SK-MEL-2 16.9 µM | SW-620 22.8 µM | UACC-257 17.4 µM

CC(=O)OC1COC(N2C(=O)C(=O)c3cc(Br)ccc32)C(OC(C)=O)C1OC(C)=O (stereo not drawn)
inactive: A498 > 100 µM | A549 > 100 µM | ACHN > 100 µM | HOP-62 > 100 µM | HOP-92 > 100 µM | KM12 > 100 µM | MOLT-4 96.8 µM | NCI-H23 > 100 µM | OVCAR-3 > 100 µM | RPMI-8226 > 100 µM | RXF 393 > 100 µM | SF-268 > 100 µM | SF-539 > 100 µM | SK-MEL-2 > 100 µM | SW-620 > 100 µM | UACC-257 > 100 µM

C=CCO/N=C(\OC(=O)c1ccc([N+](=O)[O-])cc1)c1ccccc1
inactive: A498 > 100 µM | A549 > 100 µM | ACHN > 100 µM | HOP-62 > 100 µM | HOP-92 > 100 µM | KM12 > 100 µM | NCI-H23 > 100 µM | OVCAR-3 > 100 µM | OVCAR-5 > 100 µM | RPMI-8226 > 100 µM | SF-268 > 100 µM | SF-539 > 100 µM | SK-MEL-2 > 100 µM | SW-620 > 100 µM

NC(=O)c1ccc(Cl)c([N+](=O)[O-])c1
inactive: A498 > 100 µM | A549 > 100 µM | ACHN > 100 µM | HCT-116 > 100 µM | HOP-62 > 100 µM | HOP-92 > 100 µM | KM12 > 100 µM | MOLT-4 > 100 µM | NCI-H23 > 100 µM | OVCAR-3 > 100 µM | OVCAR-5 > 100 µM | RPMI-8226 > 10 µM | RXF 393 > 100 µM | SF-268 > 100 µM | SF-539 > 100 µM | SW-620 > 100 µM | UACC-257 > 100 µM

N#Cc1ccc(OCCSCCCCCCCCCCSCCOc2ccc(C#N)cc2)cc1
inactive: A498 > 100 µM | A549 > 100 µM | ACHN > 100 µM | HOP-62 > 100 µM | KM12 > 100 µM | MOLT-4 > 100 µM | NCI-H23 > 100 µM | OVCAR-3 > 100 µM | OVCAR-5 > 100 µM | RPMI-8226 > 100 µM | RXF 393 > 100 µM | SF-268 > 100 µM | SF-539 > 100 µM | SK-MEL-2 > 100 µM | SW-620 > 100 µM | UACC-257 2.25 µM

N#CC(C(=O)CCC(=O)C(C#N)c1ccccc1)c1ccccc1 (stereo not drawn)
inactive: A498 > 100 µM | A549 > 100 µM | ACHN > 100 µM | HCT-116 > 100 µM | HOP-62 > 100 µM | HOP-92 > 100 µM | KM12 > 100 µM | MOLT-4 > 100 µM | NCI-H23 > 100 µM | OVCAR-3 > 100 µM | OVCAR-5 > 100 µM | RPMI-8226 > 100 µM | RXF 393 > 100 µM | SF-268 > 100 µM | SF-539 > 100 µM | SK-MEL-2 > 100 µM | SW-620 > 100 µM | UACC-257 > 100 µM

Cc1cccc(C)c1NC(=O)CCC(=O)NNc1nnc(C)n1N
inactive: A498 53.3 µM | A549 > 100 µM | ACHN > 100 µM | HCT-116 > 100 µM | HOP-62 > 100 µM | HOP-92 > 100 µM | KM12 > 100 µM | MOLT-4 > 100 µM | NCI-H23 > 100 µM | OVCAR-3 > 100 µM | OVCAR-5 > 100 µM | RPMI-8226 > 100 µM | RXF 393 > 100 µM | SF-268 > 100 µM | SF-539 > 100 µM | SK-MEL-2 > 100 µM | SW-620 > 100 µM | UACC-257 > 100 µM

CCOc1ccccc1NC(=O)C(=O)CC(=O)c1c(C)[n+]([O-])c2ccccc2[n+]1[O-]
inactive: A498 > 100 µM | A549 > 100 µM | ACHN > 100 µM | HCT-116 > 100 µM | HOP-62 > 100 µM | HOP-92 > 100 µM | KM12 83.9 µM | MOLT-4 > 100 µM | NCI-H23 65 µM | OVCAR-3 25.2 µM | OVCAR-5 > 100 µM | RPMI-8226 > 100 µM | RXF 393 > 100 µM | SF-268 > 100 µM | SF-539 > 100 µM | SK-MEL-2 > 100 µM | SW-620 > 100 µM | UACC-257 > 100 µM

COC(=O)C(Cc1nc2ccccc2nc1O)C(NO)C(=O)Nc1c(Cl)cc([N+](=O)[O-])cc1Cl (stereo not drawn)
inactive: A498 21.4 µM | A549 38.5 µM | ACHN 35.6 µM | HCT-116 22.3 µM | HOP-62 26 µM | HOP-92 5.56 µM | KM12 33.7 µM | MOLT-4 27.9 µM | NCI-H23 22.4 µM | OVCAR-3 40.6 µM | RPMI-8226 34.7 µM | RXF 393 16.5 µM | SF-268 32.8 µM | SF-539 22.8 µM | SK-MEL-2 32.1 µM | UACC-257 27.7 µM

NC(=O)c1c2c(cc3c(=O)c4ccccc4[nH]c13)CCCC2
inactive: A498 > 100 µM | A549 > 100 µM | ACHN > 100 µM | HCT-116 > 100 µM | HOP-62 > 100 µM | HOP-92 > 100 µM | KM12 > 100 µM | MOLT-4 > 61.2 µM | NCI-H23 > 93.3 µM | OVCAR-3 > 100 µM | OVCAR-5 > 100 µM | RPMI-8226 > 46.8 µM | RXF 393 > 100 µM | SF-268 > 100 µM | SF-539 > 100 µM | SK-MEL-2 > 65.9 µM | SW-620 > 100 µM | UACC-257 > 100 µM

CCOC(=O)C1N(S(=O)(=O)c2ccc(C)cc2)CCC12c1ccccc1N(C(C)=O)C2C(/C=C/C(=O)OC)=C/C(=O)OC (stereo not drawn)
inactive: A498 > 100 µM | A549 84.1 µM | ACHN > 100 µM | HCT-116 > 100 µM | HOP-62 > 100 µM | HOP-92 44.1 µM | KM12 > 100 µM | NCI-H23 > 100 µM | OVCAR-3 > 100 µM | OVCAR-5 > 100 µM | RPMI-8226 62.5 µM | RXF 393 > 100 µM | SF-268 > 100 µM | SF-539 > 100 µM | SW-620 > 100 µM | UACC-257 > 100 µM

CC12CCC[C@@](C)(C(=O)OC3OC(CO)C(O)C(O)C3O)[C@H]1CCC13CC4CC(OC4(CO)[C@H]1O)[C@@H]23 (stereo partly drawn)
inactive: A498 > 100 µM | A549 > 100 µM | ACHN > 100 µM | HCT-116 > 100 µM | HOP-62 > 100 µM | HOP-92 > 100 µM | KM12 > 100 µM | MOLT-4 > 100 µM | NCI-H23 > 100 µM | OVCAR-3 > 100 µM | OVCAR-5 > 100 µM | RPMI-8226 > 100 µM | RXF 393 > 100 µM | SF-268 > 100 µM | SF-539 > 100 µM | SK-MEL-2 > 100 µM | SW-620 14.5 µM | UACC-257 > 100 µM

From ChEMBL document CHEMBL1201862, “PubChem BioAssay data set” (2004)
